# Experimental data: patent publication US8932563B2, “Higher loading zinc-containing films” (Colgate-Palmolive Company, priority 2009, dated 2015)
# Assay: Zinc uptake from toothpaste onto artificial soft substrate
# Format: in vitro ADME
# Details: for zinc uptake, ppm: Vitro-Skin incubated 1 hour, 1:2 dilution
# Protocol: Zinc uptake experiments were performed to compare the amount of zinc delivered to an artificial soft substrate using the same level of zinc oxide films in toothpaste with different loadings. The films (Zn30 and Zn50) were incorporated into a MaxFresh Nite toothpaste base. The experiments included comparing:
# Certain parameters for testing were kept constant for the experiments. They included:
# Vitro-Skin incubated for 1 hour
# 1:2 dilution of toothpaste to deionized water
# Two 5 mL washes of deionized water for 10 seconds
# There also was an increase in binding with an increase in film concentration. The zinc uptake method quantifies the amount of zinc delivered to a soft substrate. Vitro-Skin was used as a model substrate because it mimics human skin. […] Also the films act as a delivery vehicle to deposit more zinc onto the substrate than its equivalent in powder form.
# [1] = 1.0% film or powder in toothpaste
structure (smiles),measurement,setting,value
"[O-2].[Zn+2] [ZnO Powder, Zinc Oxide]","zinc uptake, μg/cm^2",0.15% powder in toothpaste,5.7 μg/cm^2
same,"zinc uptake, ppm",0.15% powder in toothpaste,2.05 ppm
same,"zinc uptake, μg/cm^2",[1],21.5 μg/cm^2
same,"zinc uptake, ppm",[1],59.7 ppm
